# Data: US20260248702A1, “Composition Comprising a UV-Filter Stabilizer” (Symrise AG, priority 2022, published 2026)
# Assay: Photostability test: E1%/cm absorbance measurement before and after irradiation with 5 MED
# Assay type: physicochemical
# Details: for Photostability result in words / Lost (%) after irradiation with 5 MED (1,250 J/m^2) / E max (nm): E1%/cm solution; for Lost (%) after irradiation with 5 MED (1,250 J/m^2): absorbance loss at E max; for E max (nm): wavelength of maximum absorbance; for loss of the photo-unstable UV-filter (absorbance loss), UV-filter alone versus in combination with the MAA compound: after irradiation with 5 MED, no wavelength given in the sentence; for photo-stabilizing effect in words: summary statements on the photostability test
# Protocol: The photostability of a UV-filter can be determined in vitro using absorbance measures, by which the loss in absorbance of the UV-filter before and after irradiation, for example with 5 MED, is measured. The loss in absorbance of the UV-filter goes along with the degradation of the UV-filter by one or more photochemical reactions, including photofragmentation, isomerization, tautomerization, photoaddition and the like. UV-filters with an absorbance loss≥20% after irradiation are classified as photo-unstable. Alternatively, the photostability of a UV-filter can be determined by analytical measures, that is by quantitative determination of the amount (i.e. concentration) by which the filter is degraded.
# UV-filters are usually tested for photostability to ensure that no degradation of the UV-filter itself or in combination with other substances takes place.
# The UV-filter stabilizing properties of mycosporine-like amino acid compounds were explored by comparing the behaviour of UV-filter alone relative to UV-filters in combination with a certain mycosporine-like amino acid compound.
# In the present case single photo-unstable UV-filters as well as formulations of photo-unstable filters with certain mycosporine-like amino acid compounds were subjected to photostability testing, described in detail below, to determine the retention of absorption of UVA and UVB radiation (full spectrum analysis) after exposing the sample to 5 MED (minimal erythema) dose (1 MED=250 J/m^2).
# Sample preparation: The substance or the formulation to be tested was dissolved in a suitable solvent. For this purpose, a certain amount of the substance or formulation was transferred by means of an analytical balance/pipette into a graduated flask and filled with the selected solvent. The filling up to the calibration mark of the graduated flask was carried out only after complete dissolution of the substance and temperature control at 20° C.
# Preparation of solution E 1%/cm: 100 mg of the substance or formulation to be tested were weighed into a graduated flask and filled up to 100 ml with the corresponding solvent. A clear solution was obtained. If necessary, an ultrasonic bath can be used to improve solubility. For further dilution the sample was adjusted to a temperature of 20° C. 1 ml of the dissolved solution was added into a second graduated 100 ml flask, filled up to 100 ml at a temperature of 20° C. The final concentration of the thus obtained solution was 0.001%. (E1%/cm). This solution was used for absorbance measurement and irradiation. Said solution was transferred to a 10 mm quartz cuvette with closure.
# Irradiation: Irradiation of the sample was performed for […] with 700 W/m^2 emitted by an Atlas SUN Test CPS. This corresponds to an amount of energy of 5 MED (minimal erythema) dose (=1,250 J/m^2). At the same time, the temperature of the devise was adjusted to max 30° C. in order to avoid strong heating of the sample.
# Measurement: The absorbance measurement of the sample in the quartz cuvette with closure (10 mm) was carried out in a wavelength range of 200 nm to 700 nm with a Lambda 25 UV spectrometer. A blank absorbance test was carried out with the corresponding solvent for preparing the samples as described above. The absorbance measurement of the samples was carried out before (pre-irradiation) and after irradiation emitted by a Atlas SUN Test CPS (see above).
# The amplitude of the absorbance curve reflects the degree of protection. The higher the amplitude of the curve, the greater the absorbance and the more protection provided at that wavelength. Within the UVB portion of the spectrum (290 nm to 320 nm) this amplitude correlates with the SPF. The greater the breadth of the curve, the more protection provided against longer wave UV ration. In other words, the greater the breadth of the curve, the broader the spectrum of sun protection provided. […]
# [1] = after irradiation with 5 MED (1,250 J/m^2)
compound,measurement,setting,value
"COc1ccc(C(=O)CC(=O)c2ccc(C(C)(C)C)cc2)cc1 [Butyl Methoxydibenzoylmethane, Butyl-Methoxydibenzoylmethane or Avobenzone]",Absorbance loss at 358 nm,"E1%/cm solution (0.001%), after irradiation with 5 MED (1,250 J/m^2), read at 358 nm",7.05%
same,Photostability result in words,[1],photostable in this kind of medium
same,"Lost (%) after irradiation with 5 MED (1,250 J/m^2)",,7.05%
same,E max (nm),,358 nm
same,"loss of the photo-unstable UV-filter (absorbance loss), UV-filter alone versus in combination with the MAA compound",,7.05%
"CCCCC(CC)COC(=O)C=Cc1ccc(OC)cc1 (stereo not drawn) [Ethylhexyl Methoxycinnamate, Ethylhexyl-Methoxycinnamate]",Photostability result in words,[1],Not photostable
"COc1ccc(/C=C/C(=O)OCCC(C)C)cc1 [Isoamyl p-Methoxycinnamate, Isoamyl-p-Methoxycinnamate]",Absorbance loss at 310 nm,"E1%/cm solution (0.001%), after irradiation with 5 MED (1,250 J/m^2), read at 310 nm",30.5%
same,Photostability result in words,[1],Not photostable
same,"Lost (%) after irradiation with 5 MED (1,250 J/m^2)",,30.50%
same,E max (nm),,310 nm
same,"loss of the photo-unstable UV-filter (absorbance loss), UV-filter alone versus in combination with the MAA compound",,30.50%
same,Critical Wavelength (nm),wavelength at which 90% of the total area under the UV protection curve (280-400 nm) is reached,324 nm
"CCOC(=O)CNC1=C/C(=N/c2ccccc2)CC(C)(C)C1 [MAA-1, ethyl 2-[[5,5-dimethyl-3-phen-ylimino-cyclohexen-1-yl]amino] acetate]",Absorbance loss at 321 nm,"E1%/cm solution (0.001%), after irradiation with 5 MED (1,250 J/m^2), read at 321 nm",0.53%
same,Photostability result in words,[1],Very photostable molecule
same,photo-stabilizing effect in words,,pronounced photo-stabilizing effect
"COc1ccc(/N=C2\CC(C)(C)CC3=C2SCC(C(=O)O)N3)cc1OC (stereo not drawn) [MAA-13, 8-((3,4-dimethoyxphenyl)-imino)-6,6-dimethyl-3,4,5,6,7,8-hexahydro-2-H-benzol[b][1,4]thiazine-3-car-boxylic acid]",Absorbance loss at 364 nm,"E1%/cm solution (0.001%), after irradiation with 5 MED (1,250 J/m^2), read at 364 nm",5.13%
same,Photostability result in words,[1],Very photostable molecule
same,photo-stabilizing effect in words,,pronounced photo-stabilizing effect
"CC1(C)CC(NCC(=O)O)=C/C(=N/c2ccccc2)C1 [MAA-20, 2-[(5,5-dimethyl-3-phenyl-imino-cyclohexen-1-yl)-amino]acetic acid]",Photostability result in words,[1],Very photostable molecule
"CC1(C)CC(NCC(=O)O)=C/C(=N/c2ccc(S(=O)(=O)O)cc2)C1 [MAA-28, 2-[(5,5-dimethyl-3-(4-sulfo-phenyl)imino-cyclohexen-1-yl)amino]acetic acid]",Absorbance loss at 335 nm,"E1%/cm solution (0.001%), after irradiation with 5 MED (1,250 J/m^2), read at 335 nm",15.03%
same,Photostability result in words,[1],A photostable molecule
